These are literature values, as cited in publication PMC12264960, “siRNA Interaction and Transfection Properties of Polycationic Phosphorus Dendrimers” (Biomacromolecules, 2025).

Data set [1] concerns translation in the eukaryotic system. Further details: method as in earlier work. The following applies: ref [4].
Data set [2] relates to translation in the prokaryotic system. Also noted: method as in earlier work. Conditions: ref [4].

SMILES strings stand for the structures.

For `NC1C(OCOC2C(N)[C@H](O[C@H]3C(N)C[C@H](N)C(O)C3O)OC(CO)[C@@H]2O)[C@H](O)C(CO)O[C@@H]1O[C@@H]1C(N)C[C@@H](N)C(O)C1O` (some centres unmarked) [NB33], in data set [1], the “fold better inhibitor of translation compared to apramycin” value was 10 fold. In addition, the “times weaker inhibitor of translation compared to apramycin” value in data set [2] is 22 times.
